Assay results published in ChEMBL document CHEMBL5608179, “Triptonide induces apoptosis and inhibits the proliferation of ovarian cancer cells by activating the p38/p53 pathway and autophagy” (Bioorg Med Chem, 2024).
pIC50: −log10 of the molar value. Calls of active or inactive are those of the source. The rule behind the calls is not given here.

Experiments:
A2780 [1] = test: Induction of apoptosis in human A2780 cells assessed as late apoptotic cells at 800 nM measured after 24 hrs by Annexin V-FITC/PI flow cytometry (reference value: 1.58%); assay type: functional
A2780 [2] = test: Induction of cell cycle arrest at S phase in human A2780 cells assessed as increase in cyclin E1 proteins in presence of SB203580 measured at 10 nM after 24 hrs by Western blot analysis; assay type: functional, cell-based
A2780 [3] = test: Induction of apoptosis in human A2780 cells assessed as decrease in cleaved Bcl-2 level measured at 5 to 20 nM after 12 to 48 hrs by Western blot analysis; assay type: functional, cell-based; conditions: dose 5-20 nM, time 12-48 hrs
A2780 [4] = test: Reduction in p62 expression in human A2780 cells in presence of autophagy inhibitor bafilomycin A1 at 5 to 20 nM measured after 24 hrs by Western blot analysis; assay type: functional, cell-based; conditions: dose 5-20 nM
A2780 [5] = test: Induction of apoptosis in human A2780 cells assessed as increase in cleaved caspase 3 level measured after 12 to 48 hrs by Western blot analysis; assay type: functional, cell-based; conditions: dose 5-20 nM, time 12-48 hrs
A2780 [6] = test: Induction of cell cycle arrest in human A2780 cells assessed as accumulation of cells at G2 phase at 2 nM measured after 24 hrs by PI staining based ell Cycle Analysis Kit (KeyGEN) (reference value: 22.2%); assay type: functional
A2780 [7] = test: Antiproliferative activity against human A2780 cells assessed as number of fluorescent dots in presence of p53 SiRNA 1 in presence of bafilomycin A1 at 4 nM measured after 24 hrs by KitkFluor555 Click-iT EdU Kit staining assay; assay type: functional, cell-based
A2780 [8] = test: Induction of apoptosis in human A2780 cells assessed as necrotic cells in presence of SB203580 at 8 nM measured after 24 to 72 hrs by Annexin V-FITC/PI flow cytometry (reference value: 0.39%); assay type: functional; conditions: time 24-72 hrs
A2780 [9] = test: Induction of cell cycle arrest in human A2780 cells assessed as accumulation of cells at G1 phase at 2 nM measured after 24 hrs by PI staining based ell Cycle Analysis Kit (KeyGEN) (reference value: 53.9%); assay type: functional
A2780 [10] = test: Induction of cleaved PARP level in human A2780 cells at 5 to 20 nM measured after 24 hrs by Western blot analysis; assay type: functional, cell-based; conditions: dose 5-20 nM
A2780 [11] = test: Induction of p38 expression in human A2780 cells at 5 to 20 nM measured after 24 hrs by Western blot analysis; assay type: functional, cell-based; conditions: dose 5-20 nM
SK-OV-3 = test: Cytotoxicity against human SK-OV-3 cells assessed as cell viability measured after 48 hrs by MTT assay; assay type: functional, cell-based; conditions: SK-OV-3, 48 h
A2780 [12] = test: Induction of apoptosis in human A2780 cells assessed as viable cells in presence of bafilomycin A1 at 800 nM measured after 24 hrs by Annexin V-FITC/PI flow cytometry (reference value: 96.1%); assay type: functional
A2780 [13] = test: Induction of LC3II expression in human A2780 cells in presence of autophagy inhibitor bafilomycin A1 at 5 to 20 nM measured after 24 hrs by Western blot analysis; assay type: functional, cell-based; conditions: dose 5-20 nM
A2780 [14] = test: Induction of cell cycle arrest at S phase in human A2780 cells assessed as increase in cyclin B1 proteins measured after 24 hrs by Western blot analysis; assay type: functional, cell-based; conditions: dose 5-20 nM
A2780 [15] = test: Induction of cell cycle arrest in human A2780 cells assessed as accumulation of cells at G1 phase at 1 nM measured after 24 hrs by PI staining based ell Cycle Analysis Kit (KeyGEN) (reference value: 53.9%); assay type: functional
A2780 [16] = test: Induction of cell cycle arrest at S phase in human A2780 cells assessed as increase in CDK2 proteins measured after 24 hrs by Western blot analysis; assay type: functional, cell-based; conditions: dose 5-20 nM
A2780 [17] = test: Induction of apoptosis in human A2780 cells assessed as early apoptotic cells in presence of p53 SiRNA 1 at 4 nM measured after 24 hrs by Annexin V-FITC/PI flow cytometry (reference value: 2.82%); assay type: functional
A2780 [18] = test: Induction of apoptosis in human A2780 cells assessed as increase in cleaved caspase 3 level measured at 5 to 20 nM by Western blot analysis; assay type: functional, cell-based; conditions: dose 5-20 nM, time 12-48 hrs, TDE = time-dependent effect
[19] = Toxicity in BALB/c-nu mouse subcutaneously inoculated with human A2780 cells assessed as morphological changes of lung at 3 to 5 mg/kg, ip administered every day for 20 days by HE staining analysis; assay type: organism-based; conditions: in vivo, sc, 480 h, dose 3-5 mg/kg, time 20 day
A2780 [20] = test: Inhibition of colony formation in human A2780 cells in presence of SB203580 at 0.25 nM incubated for 48 hrs by crystal violet staining based colony counting method; assay type: functional, cell-based
A2780 [21] = test: Induction of apoptosis in human A2780 cells assessed as viable cells at 4 nM measured after 24 hrs by Annexin V-FITC/PI flow cytometry (reference value: 94.2%); assay type: functional; conditions: read-out: Activity
A2780 [22] = test: Induction of cell cycle arrest in human A2780 cells assessed as accumulation of cells at G2 phase at 4 nM measured after 24 hrs by PI staining based Cell Cycle Analysis Kit (KeyGEN) (reference value: 24.5%); assay type: functional
A2780 [23] = test: Induction of apoptosis in human A2780 cells assessed as late apoptotic cells at 4 nM measured after 24 hrs by Annexin V-FITC/PI flow cytometry (reference value: 2.54%); assay type: functional
A2780 [24] = test: Antiproliferative activity against human A2780 cells assessed as number of fluorescent dots in presence of p53 SiRNA 2 at 4 nM measured after 24 hrs by KitkFluor555 Click-iT EdU Kit staining assay; assay type: functional, cell-based
[25] = biological target: Cellular tumor antigen p53 (Homo sapiens) (UniProt P04637); test: Activation of p53 in human A2780 cells assessed as increase phosphorylation of p38 at 5 to 20 nM measured after 24 hrs by Western blot analysis; assay type: cell-based; conditions: filed as activator, dose 5-20 nM
A2780 [26] = test: In vivo antitumor activity against human A2780 cells subcutaneously inoculated in BALB/c-nu mouse assessed as reduction in tumor weight at 3 to 5 mg/kg, ip administered every day for 20 days; assay type: functional, organism-based; conditions: dose 3-5 mg/kg, time 20.0 day
A2780 [27] = test: Induction of apoptosis in human A2780 cells assessed as late apoptotic cells in presence of p53 SiRNA 1 at 4 nM measured after 24 hrs by Annexin V-FITC/PI flow cytometry (reference value: 2.54%); assay type: functional
A2780 [28] = test: Induction of apoptosis in human A2780 cells assessed as necrotic cells at 4 nM measured after 24 hrs by Annexin V-FITC/PI flow cytometry (reference value: 0.39%); assay type: functional
A2780 [29] = test: Induction of apoptosis in human A2780 cells assessed as early apoptotic cells in presence of SB203580 at 8 nM measured after 24 to 72 hrs by Annexin V-FITC/PI flow cytometry (reference value: 2.82%); assay type: functional; conditions: time 24-72 hrs
A2780 [30] = test: Induction of cell cycle arrest in human A2780 cells assessed as accumulation of cells at G2 phase at 1 nM measured after 24 hrs by PI staining based ell Cycle Analysis Kit (KeyGEN) (reference value: 22.2%); assay type: functional
A2780 [31] = test: Induction of cell cycle arrest at S phase in human A2780 cells assessed as increase in cyclin B1 proteins in presence of SB203580 measured at 10 nM after 24 hrs by Western blot analysis; assay type: functional, cell-based

Chain of Cellular tumor antigen p53 (Homo sapiens) (P04637 whole entry, looked up): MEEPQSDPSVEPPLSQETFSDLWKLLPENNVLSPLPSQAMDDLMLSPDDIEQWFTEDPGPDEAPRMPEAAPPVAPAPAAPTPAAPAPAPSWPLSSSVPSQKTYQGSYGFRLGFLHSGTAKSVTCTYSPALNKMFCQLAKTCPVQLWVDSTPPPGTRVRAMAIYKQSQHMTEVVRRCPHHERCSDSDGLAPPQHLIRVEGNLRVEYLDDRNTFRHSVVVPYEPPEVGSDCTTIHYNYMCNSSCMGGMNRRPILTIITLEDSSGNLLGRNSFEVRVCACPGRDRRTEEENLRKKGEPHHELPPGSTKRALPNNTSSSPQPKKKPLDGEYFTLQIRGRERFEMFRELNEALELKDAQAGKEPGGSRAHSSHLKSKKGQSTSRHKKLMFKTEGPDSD

Question: What does the source list for `CC(C)[C@]12O[C@H]1[C@@H]1O[C@]13[C@]1(O[C@H]1C[C@H]1C4=C(CC[C@@]13C)C(=O)OC4)[C@@H]2O` [TRIPTOLIDE]?
Answer: Activity (A2780 [1]): 9.01%; Activity (A2780 [2]): inactive; Activity (A2780 [3]): Dose-Dependent Effect; Activity (A2780 [4]): inactive; Activity (A2780 [5]): Dose-Dependent Effect; Activity (A2780 [6]): 15.3%; Activity (A2780 [7]): inactive; Activity (A2780 [8]): 5.87%; Activity (A2780 [9]): 62.6%; Activity (A2780 [10]): Active; Activity (A2780 [11]): Active; pIC50 (SK-OV-3): 6.10; Activity (A2780 [12]): 90.3%; Activity (A2780 [13]): inactive; Activity (A2780 [14]): Dose-Dependent Effect; Activity (A2780 [15]): 67.3%; Activity (A2780 [16]): Dose-Dependent Effect; Activity (A2780 [17]): 11.7%; Activity (A2780 [18]): Tde; Activity [19]: Non-Toxic; inhibition (A2780 [20]): inactive; viability at 0.004 µM (A2780 [21]): 33.1%; Activity (A2780 [22]): 27.4%; Activity (A2780 [23]): 27.5%; Activity (A2780 [24]): inactive; Activity [25]: Active; Activity (A2780 [26]): Active; Activity (A2780 [27]): 14.3%; Activity (A2780 [28]): 9.88%; Activity (A2780 [29]): 13.1%; Activity (A2780 [30]): 15.4%; Activity (A2780 [31]): inactive
